# Where “and” joins values, the source holds several entries; their conditions need not be identical. Identical values can stand only once. Inconclusive results and toxic doses are left out.
# System: L1210 leukemia ip in BDF1 mice, survival T/C
# Assay: NCI In Vivo Anticancer Drug Screen. Data for tumor model L1210 Leukemia (intraperitoneal) in B6D2F1 (BDF1) mice
# Details: endpoint: mean survival time, higher = longer survival
# Outline: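 Read-out is survival time, reported as the treated-group measurement over the vehicle-control measurement.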
# [1] = dose: 100.0 mg/kg/injection, schedule: Q01DX001 (ip), vehicle: Klucel (hydroxypropylcellulose) (HPC)
# [2] = dose: 200.0 mg/kg/injection, schedule: Q01DX001 (ip), vehicle: Klucel (hydroxypropylcellulose) (HPC)
# [3] = dose: 100.0 mg/kg/injection, schedule: Q01DX009 (ip), vehicle: saline
# [4] = dose: 200.0 mg/kg/injection, schedule: Q01DX009 (ip), vehicle: saline
# [5] = dose: 400.0 mg/kg/injection, schedule: Q01DX009 (ip), vehicle: saline
# [6] = dose: 25.0 mg/kg/injection, schedule: Q04DX003 (ip), vehicle: saline
# [7] = dose: 50.0 mg/kg/injection, schedule: Q04DX003 (ip), vehicle: saline
# [8] = dose: 100.0 mg/kg/injection, schedule: Q01DX001 (ip), vehicle: saline
# [9] = dose: 100.0 mg/kg/injection, schedule: Q04DX003 (ip), vehicle: saline
# [10] = dose: 50.0 mg/kg/injection, schedule: Q01DX001 (ip), vehicle: saline
# [11] = dose: 200.0 mg/kg/injection, schedule: Q01DX001 (ip), vehicle: saline
# [12] = dose: 400.0 mg/kg/injection, schedule: Q01DX001 (ip), vehicle: saline
# [13] = dose: 100.0 mg/kg/injection, schedule: Q04DX003 (ip), vehicle: saline with Tween-80
# [14] = dose: 100.0 mg/kg/injection, schedule: Q01DX009 (ip), vehicle: saline with Tween-80
# [15] = dose: 200.0 mg/kg/injection, schedule: Q01DX009 (ip), vehicle: saline with Tween-80
# [16] = dose: 400.0 mg/kg/injection, schedule: Q01DX009 (ip), vehicle: saline with Tween-80
# [17] = dose: 200.0 mg/kg/injection, schedule: Q04DX003 (ip), vehicle: saline
# [18] = dose: 400.0 mg/kg/injection, schedule: Q04DX003 (ip), vehicle: saline
# [19] = dose: 12.5 mg/kg/injection, schedule: Q04DX003 (ip), vehicle: saline
# [20] = dose: 25.0 mg/kg/injection, schedule: Q01DX009 (ip), vehicle: saline with Tween-80
# [21] = dose: 50.0 mg/kg/injection, schedule: Q01DX009 (ip), vehicle: saline with Tween-80
compound,measurement,setting,value
CC(=O)Nc1ccc(N=Nc2ccccc2)cc1,T/C,[1],100 % of control
same,T/C,[2],100 % of control
same,T/C,"dose: 400.0 mg/kg/injection, schedule: Q01DX001 (ip), vehicle: Klucel (hydroxypropylcellulose) (HPC)",96 % of control
CCOC(=O)N1CCOCC1,T/C,[3],100 % of control
same,T/C,[4],97 % of control
same,T/C,[5],96 % of control
CNC(=N)c1ccc(NC(=N)c2ccc(NC(=N)c3ccc(NC(=O)Nc4ccc(C(=N)Nc5ccc(C(=N)Nc6ccc(C(=N)NC)cc6)cc5)cc4)cc3)cc2)cc1,T/C,"dose: 6.25 mg/kg/injection, schedule: Q01DX001 (ip), vehicle: water",112 % of control
same,T/C,"dose: 12.5 mg/kg/injection, schedule: Q01DX001 (ip), vehicle: water",108 % of control
same,T/C,"dose: 16.0 mg/kg/injection, schedule: Q01DX015 (ip), vehicle: water",157 % of control
same,T/C,"dose: 25.0 mg/kg/injection, schedule: Q01DX001 (ip), vehicle: water",112 % of control
same,T/C,"dose: 31.0 mg/kg/injection, schedule: Q01DX015 (ip), vehicle: water",214 % of control
CCOC(=O)C1(C(=O)OCC)CCC2Nc3ccccc3CC(=O)N21 (configuration not stated),T/C,"dose: 25.0 mg/kg/injection, schedule: Q04DX003 (ip), vehicle: Klucel (hydroxypropylcellulose) (HPC)",101 % of control
same,T/C,"dose: 50.0 mg/kg/injection, schedule: Q04DX003 (ip), vehicle: Klucel (hydroxypropylcellulose) (HPC)",94 % of control
same,T/C,"dose: 100.0 mg/kg/injection, schedule: Q04DX003 (ip), vehicle: Klucel (hydroxypropylcellulose) (HPC)",100 % of control
O=C1NC2(CCCC2)C(=O)N2CCCC12 (configuration not stated),T/C,"dose: 400.0 mg/kg/injection, schedule: Q04DX003 (ip), vehicle: Klucel (hydroxypropylcellulose) (HPC)",97 % of control
CC(C)(C)OC(=O)CC1(C)CCC2C1C(=O)OC2(C)C (configuration not stated),T/C,[6],98 % of control
same,T/C,[7],98 % of control
same,T/C,[8],91 % of control
same,T/C,[9],102 % of control
CCC(=O)OCNC(=O)NNC(=O)CCCC(=O)NNC(=O)NCOC(=O)CC,T/C,[10],102 % of control
same,T/C,[8],102 % of control
same,T/C,[11],106 % of control
same,T/C,[12],100 % of control
Nc1ccc(Cc2nc3ccccc3[nH]2)cc1,T/C,[8],102 % of control
same,T/C,[11],96 % of control
same,T/C,[12],98 % of control
O=C(NC/C=C/Br)NC1CCCc2ccccc21 (configuration not stated),T/C,"dose: 100.0 mg/kg/injection, schedule: Q01DX009 (ip), vehicle: other",106 % of control
same,T/C,"dose: 200.0 mg/kg/injection, schedule: Q01DX009 (ip), vehicle: other",110 % of control
same,T/C,"dose: 400.0 mg/kg/injection, schedule: Q01DX009 (ip), vehicle: other",100 % of control
COCC(=O)c1ccccc1,T/C,[10],96 % of control
same,T/C,[8],98 % of control
same,T/C,[11],98 % of control
same,T/C,[12],93 % of control
CCc1ccc(NC(C)=O)cc1,T/C,[13],105 % of control
same,T/C,"dose: 200.0 mg/kg/injection, schedule: Q04DX003 (ip), vehicle: saline with Tween-80",94 % of control
same,T/C,"dose: 400.0 mg/kg/injection, schedule: Q04DX003 (ip), vehicle: saline with Tween-80",102 % of control
CCCCCCCCC1SC1CCCCCCCC(=O)OCCOCCOCC (configuration not stated),T/C,[14],95 % of control
same,T/C,[15],92 % of control
same,T/C,[16],95 % of control
CCCCCCCCCCC(S(=O)(=O)CC)S(=O)(=O)CC,T/C,[1],97 % of control
same,T/C,[2],94 % of control
O=C(NCc1cnccn1)c1ccc(Cl)c(Cl)c1,T/C,[14],98 % of control
same,T/C,[15],98 % of control
same,T/C,[16],106 % of control
N#CC1(C(N)=O)OC1c1ccccc1Cl (configuration not stated),T/C,"dose: 100.0 mg/kg/injection, schedule: Q04DX003 (ip), vehicle: carboxymethylcellulose (CMC)",97 % of control
same,T/C,"dose: 200.0 mg/kg/injection, schedule: Q04DX003 (ip), vehicle: carboxymethylcellulose (CMC)",98 % of control
O=c1ccc(=O)n(CCc2ccccn2)[nH]1,T/C,[10],97 % of control
same,T/C,[8],97 % of control
same,T/C,[11],94 % of control
same,T/C,[12],97 % of control
Cc1cc(=O)[nH]c2c(Cl)ccc(C(F)(F)F)c12,T/C,"dose: 100.0 mg/kg/injection, schedule: Q01DX001 (ip), vehicle: other",94 % of control
same,T/C,"dose: 200.0 mg/kg/injection, schedule: Q01DX001 (ip), vehicle: other",94 % of control
same,T/C,"dose: 400.0 mg/kg/injection, schedule: Q01DX001 (ip), vehicle: other",114 % of control
O=C1CCCC1CN1CCOCC1 (configuration not stated),T/C,[3],92 % of control
same,T/C,[4],96 % of control
same,T/C,[5],94 % of control
COc1cc2ccc3cc[n+](C)cc3c2cc1OC,T/C,[7],104 % of control
same,T/C,"dose: 66.0 mg/kg/injection, schedule: Q01DX009 (ip), vehicle: saline",121 % of control
same,T/C,[3],110 % of control
same,T/C,[9],98 % of control and 104 % of control
same,T/C,"dose: 150.0 mg/kg/injection, schedule: Q01DX009 (ip), vehicle: saline",96 % of control
same,T/C,[17],110 % of control
same,T/C,[18],102 % of control
CCOC1=NN(c2ccccc2)C(=O)C1,T/C,[14],104 % of control
same,T/C,[15],101 % of control
same,T/C,[16],97 % of control
c1cc(-n2nnc3cnccc32)ccn1,T/C,"dose: 6.25 mg/kg/injection, schedule: Q04DX003 (ip), vehicle: saline",100 % of control
same,T/C,[19],91 % of control
same,T/C,[6],102 % of control
same,T/C,[9],86 % of control
CCNC(C)(C)C(Cl)c1cccs1 (configuration not stated),T/C,[3],101 % of control
same,T/C,[9],96 % of control
same,T/C,[4],100 % of control
same,T/C,[17],93 % of control
O=C1Nc2ncnn2C1=O,T/C,"dose: 100.0 mg/kg/injection, schedule: Q01DX005 (ip), vehicle: Klucel (hydroxypropylcellulose) (HPC)",98 % of control
same,T/C,"dose: 100.0 mg/kg/injection, schedule: Q01DX009 (ip), vehicle: Klucel (hydroxypropylcellulose) (HPC)",101 % of control
same,T/C,"dose: 100.0 mg/kg/injection, schedule: Q04DX002 (ip), vehicle: Klucel (hydroxypropylcellulose) (HPC)",93 % of control
same,T/C,"dose: 200.0 mg/kg/injection, schedule: Q01DX005 (ip), vehicle: Klucel (hydroxypropylcellulose) (HPC)",98 % of control
same,T/C,"dose: 200.0 mg/kg/injection, schedule: Q01DX009 (ip), vehicle: Klucel (hydroxypropylcellulose) (HPC)",93 % of control
same,T/C,"dose: 200.0 mg/kg/injection, schedule: Q04DX002 (ip), vehicle: Klucel (hydroxypropylcellulose) (HPC)",96 % of control
same,T/C,"dose: 400.0 mg/kg/injection, schedule: Q01DX005 (ip), vehicle: Klucel (hydroxypropylcellulose) (HPC)",98 % of control
same,T/C,"dose: 400.0 mg/kg/injection, schedule: Q01DX009 (ip), vehicle: Klucel (hydroxypropylcellulose) (HPC)",101 % of control
same,T/C,"dose: 400.0 mg/kg/injection, schedule: Q04DX002 (ip), vehicle: Klucel (hydroxypropylcellulose) (HPC)",104 % of control
COc1ccc(C2(OC)Oc3ccccc3C(=O)C2(O)O)cc1 (configuration not stated),T/C,[10],101 % of control
same,T/C,[8],104 % of control
same,T/C,[11],101 % of control
same,T/C,[12],104 % of control
CN(C)CCC(c1ccccc1)c1cc(Cl)ccn1 (configuration not stated),T/C,"dose: 6.25 mg/kg/injection, schedule: Q01DX009 (ip), vehicle: saline",95 % of control
same,T/C,"dose: 12.5 mg/kg/injection, schedule: Q01DX009 (ip), vehicle: saline",97 % of control
same,T/C,[19],106 % of control
same,T/C,"dose: 25.0 mg/kg/injection, schedule: Q01DX009 (ip), vehicle: saline",95 % of control
same,T/C,[6],103 % of control
same,T/C,"dose: 50.0 mg/kg/injection, schedule: Q01DX009 (ip), vehicle: saline",97 % of control
same,T/C,[7],103 % of control
same,T/C,[3],100 % of control
same,T/C,[9],106 % of control
CCCOC(C)CC(c1ccccc1)(c1ccccc1)c1ccccc1 (configuration not stated),T/C,"dose: 12.5 mg/kg/injection, schedule: Q01DX009 (ip), vehicle: saline with Tween-80",98 % of control
same,T/C,[20],95 % of control
same,T/C,[21],91 % of control
same,T/C,[15],90 % of control
O=C(Nc1ccc(F)cc1)c1ccc(Cl)cc1Cl,T/C,[8],93 % of control
same,T/C,[9],97 % of control
same,T/C,[11],95 % of control
same,T/C,[17],107 % of control
same,T/C,[12],88 % of control
same,T/C,[18],100 % of control
Clc1ccccc1-c1ncc2cnccn12,T/C,[20],98 % of control
same,T/C,"dose: 25.0 mg/kg/injection, schedule: Q04DX003 (ip), vehicle: saline with Tween-80",90 % of control
same,T/C,[21],101 % of control
same,T/C,"dose: 50.0 mg/kg/injection, schedule: Q04DX003 (ip), vehicle: saline with Tween-80",102 % of control
same,T/C,[14],107 % of control
same,T/C,[13],96 % of control and 92 % of control

# Reference: PubChem BioAssay AID248 (DTP/NCI, 2004)
